A value given as a limit tells only on which side of the number the result lay.

Assay [1] concerns the target Prostaglandin G/H synthase 1 (Homo sapiens, UniProt P23219). The assay can be described thus: Inhibition of COX1 by microplate reader.
Assay [2] has as its target T1, Prostaglandin G/H synthase 2 (Homo sapiens, UniProt P35354).
T1 sequence (P35354 whole entry): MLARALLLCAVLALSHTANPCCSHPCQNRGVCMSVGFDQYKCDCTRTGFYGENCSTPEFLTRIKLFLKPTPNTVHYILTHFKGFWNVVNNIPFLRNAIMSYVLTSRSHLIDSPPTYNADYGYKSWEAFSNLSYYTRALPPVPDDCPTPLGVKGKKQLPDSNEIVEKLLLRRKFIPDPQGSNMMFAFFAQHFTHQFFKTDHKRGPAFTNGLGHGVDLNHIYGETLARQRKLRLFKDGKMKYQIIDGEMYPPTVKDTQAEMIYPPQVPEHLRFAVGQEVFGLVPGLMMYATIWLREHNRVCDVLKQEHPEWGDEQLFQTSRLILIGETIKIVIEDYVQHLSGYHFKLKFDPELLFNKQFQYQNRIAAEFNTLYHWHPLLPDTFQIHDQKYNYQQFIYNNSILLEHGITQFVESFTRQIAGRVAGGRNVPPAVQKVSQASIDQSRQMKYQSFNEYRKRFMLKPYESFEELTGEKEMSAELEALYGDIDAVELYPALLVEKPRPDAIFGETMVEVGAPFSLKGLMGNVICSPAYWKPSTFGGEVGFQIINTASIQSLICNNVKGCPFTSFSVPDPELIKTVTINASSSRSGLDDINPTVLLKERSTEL
Description: Inhibition of COX2 by microplate reader.

Sequence of Prostaglandin G/H synthase 1 (P23219 whole entry): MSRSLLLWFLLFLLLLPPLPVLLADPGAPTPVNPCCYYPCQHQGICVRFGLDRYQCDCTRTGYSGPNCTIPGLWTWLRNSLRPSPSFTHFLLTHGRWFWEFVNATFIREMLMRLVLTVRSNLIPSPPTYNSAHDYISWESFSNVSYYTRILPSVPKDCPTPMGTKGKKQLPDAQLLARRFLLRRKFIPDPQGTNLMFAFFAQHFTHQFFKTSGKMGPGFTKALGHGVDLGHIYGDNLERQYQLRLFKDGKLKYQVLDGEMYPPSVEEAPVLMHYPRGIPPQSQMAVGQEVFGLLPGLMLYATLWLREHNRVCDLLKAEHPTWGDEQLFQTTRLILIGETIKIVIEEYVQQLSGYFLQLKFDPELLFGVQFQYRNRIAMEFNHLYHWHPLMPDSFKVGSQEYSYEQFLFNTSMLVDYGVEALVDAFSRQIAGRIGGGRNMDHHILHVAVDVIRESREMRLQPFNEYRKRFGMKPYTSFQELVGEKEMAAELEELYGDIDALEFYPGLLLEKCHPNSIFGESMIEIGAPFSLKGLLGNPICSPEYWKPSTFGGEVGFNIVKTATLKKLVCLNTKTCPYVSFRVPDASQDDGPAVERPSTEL

Turning to `C[C@@H]1O[C@@H](O[C@H]2[C@H](O)[C@@H](O)[C@H](OC[C@H]3O[C@@H](OC(=O)[C@]45CCC(C)(C)C[C@H]4C4=CC[C@@H]6[C@@]7(C)CC[C@H](O[C@@H]8OC[C@H](O)[C@H](O)[C@H]8O[C@@H]8O[C@@H](C)[C@H](O)[C@@H](O[C@@H]9OC[C@@H](O)[C@@H](O)[C@H]9O)[C@H]8O)[C@@](C)(CO)[C@@H]7CC[C@@]6(C)[C@]4(C)CC5)[C@H](O)[C@@H](O)[C@@H]3O)O[C@@H]2CO)[C@H](O)[C@H](O)[C@H]1O` [HUZHANGOSIDE D], the IC50 in assay [1] and in assay [2] was more than 50 µM each time.

`C[C@@H]1O[C@@H](O[C@H]2[C@H](O)[C@@H](O)[C@H](OC[C@H]3O[C@@H](OC(=O)[C@]45CCC(C)(C)C[C@H]4C4=CC[C@@H]6[C@@]7(C)CC[C@H](O[C@@H]8OC[C@H](O)[C@H](O)[C@H]8O[C@@H]8O[C@@H](C)[C@H](O)[C@@H](O[C@@H]9OC[C@@H](O[C@@H]%10O[C@H](CO)[C@@H](O[C@@H]%11O[C@H](CO)[C@@H](O)[C@H](O)[C@H]%11O)[C@H](O)[C@H]%10O)[C@@H](O)[C@H]9O)[C@H]8O)[C@@](C)(CO)[C@@H]7CC[C@@]6(C)[C@]4(C)CC5)[C@H](O)[C@@H](O)[C@@H]3O)O[C@@H]2CO)[C@H](O)[C@H](O)[C@H]1O`: the IC50 in assay [1] and in assay [2] was more than 50 µM each time.

`COc1ccc(/C=C/C(=O)O[C@H]2[C@H](O[C@H]3[C@H](O)[C@@H](O)[C@H](O[C@@H]4CO[C@@H](O[C@@H]5[C@@H](O)[C@H](C)O[C@@H](O[C@H]6[C@H](O[C@H]7CC[C@]8(C)[C@H]9CC=C%10[C@@H]%11CC(C)(C)CC[C@]%11(C(=O)O[C@@H]%11O[C@H](CO[C@@H]%12O[C@H](CO)[C@@H](O[C@@H]%13O[C@@H](C)[C@H](O)[C@@H](O)[C@H]%13O)[C@H](O)[C@H]%12O)[C@@H](O)[C@H](O)[C@H]%11O)CC[C@@]%10(C)[C@]9(C)CC[C@H]8C7(C)C)OC[C@H](O)[C@@H]6O)[C@@H]5O)[C@H](O)[C@@H]4O)O[C@@H]3CO)O[C@H](CO)[C@@H](O)[C@@H]2O[C@@H]2O[C@H](CO[C@@H]3O[C@@H](C)[C@H](O)[C@@H](O)[C@H]3O)[C@@H](O)[C@H](O)[C@H]2O)cc1O` [CLEMATERNOSIDE E]: the IC50 (commonly the concentration that gives 50% inhibition) in assay [1] was 8.3 µM; in assay [2], 8.5 µM.

Regarding `C[C@@H]1O[C@@H](O[C@H]2[C@H](O)[C@@H](O)[C@H](OC[C@H]3O[C@@H](OC(=O)[C@]45CCC(C)(C)C[C@H]4C4=CC[C@@H]6[C@@]7(C)CC[C@H](O[C@@H]8OC[C@H](O)[C@H](O)[C@H]8O)[C@@](C)(CO)[C@@H]7CC[C@@]6(C)[C@]4(C)CC5)[C@H](O)[C@@H](O)[C@@H]3O)O[C@@H]2CO)[C@H](O)[C@H](O)[C@H]1O` [CAULOSIDE D], the IC50 in assay [1] and in assay [2] was more than 50 µM each time.

Take `C[C@@H]1O[C@@H](O[C@H]2[C@H](O)[C@@H](O)[C@H](OC[C@H]3O[C@@H](OC(=O)[C@]45CCC(C)(C)C[C@H]4C4=CC[C@@H]6[C@@]7(C)CC[C@H](O[C@@H]8OC[C@H](O)[C@H](O)[C@H]8O[C@@H]8O[C@@H](C)[C@H](O)[C@@H](O[C@@H]9OC[C@@H](O[C@@H]%10O[C@H](CO)[C@@H](O[C@@H]%11O[C@H](CO)[C@@H](O)[C@H](O)[C@H]%11O)[C@H](O)[C@H]%10O)[C@@H](O)[C@H]9O)[C@H]8O)C(C)(C)[C@@H]7CC[C@@]6(C)[C@]4(C)CC5)[C@H](O)[C@@H](O)[C@@H]3O)O[C@@H]2CO)[C@H](O)[C@H](O)[C@H]1O` [CLEMATOMANDSHURICA SAPONIN C]: the IC50 in assay [1] and in assay [2] was more than 50 µM in each case.

With `COc1ccc(/C=C/C(=O)OC[C@H]2O[C@@H](O[C@H]3[C@H](O)[C@@H](O)[C@H](O[C@@H]4CO[C@@H](O[C@@H]5[C@@H](O)[C@H](C)O[C@@H](O[C@H]6[C@H](O[C@H]7CC[C@]8(C)[C@H]9CC=C%10[C@@H]%11CC(C)(C)CC[C@]%11(C(=O)O[C@@H]%11O[C@H](CO[C@@H]%12O[C@H](CO)[C@@H](O[C@@H]%13O[C@@H](C)[C@H](O)[C@@H](O)[C@H]%13O)[C@H](O)[C@H]%12O)[C@@H](O)[C@H](O)[C@H]%11O)CC[C@@]%10(C)[C@]9(C)CC[C@H]8C7(C)C)OC[C@@H](O)[C@@H]6O)[C@@H]5O)[C@H](O)[C@@H]4O)O[C@@H]3CO)[C@H](O)[C@@H](O)[C@@H]2O)cc1O` [CLEMATOCHINENOSIDE F], the IC50 in assay [1] was 7.8 µM; in assay [2] it was 7.2 µM.

As to `C[C@@H]1O[C@@H](O[C@H]2[C@H](O)[C@@H](O)[C@H](OC[C@H]3O[C@@H](OC(=O)[C@]45CCC(C)(C)C[C@H]4C4=CC[C@@H]6[C@@]7(C)CC[C@H](O[C@@H]8OC[C@H](O)[C@H](O)[C@H]8O[C@@H]8O[C@@H](C)[C@H](O)[C@@H](O[C@@H]9OC[C@@H](O[C@@H]%10O[C@H](CO)[C@@H](O)[C@H](O)[C@H]%10O)[C@@H](O)[C@H]9O)[C@H]8O)[C@@](C)(CO)[C@@H]7CC[C@@]6(C)[C@]4(C)CC5)[C@H](O)[C@@H](O)[C@@H]3O)O[C@@H]2CO)[C@H](O)[C@H](O)[C@H]1O` [CLEMATICHINENOSIDE B], the 50% inhibitory concentration (IC50) in assay [1] and in assay [2] was more than 50 µM throughout.

Turning to `C[C@@H]1O[C@@H](O[C@H]2[C@H](O)[C@@H](O)[C@H](OC[C@H]3O[C@@H](OC(=O)[C@]45CCC(C)(C)C[C@H]4C4=CC[C@@H]6[C@@]7(C)CC[C@H](O[C@@H]8OC[C@H](O)[C@H](O)[C@H]8O[C@@H]8O[C@@H](C)[C@H](O)[C@@H](O[C@@H]9OC[C@@H](O)[C@@H](O)[C@H]9O)[C@H]8O)C(C)(C)[C@@H]7CC[C@@]6(C)[C@]4(C)CC5)[C@H](O)[C@@H](O)[C@@H]3O)O[C@@H]2CO)[C@H](O)[C@H](O)[C@H]1O` [HUZHANGOSIDE B], the IC50 in assay [1] and in assay [2] was more than 50 µM each time.

As to `COc1ccc(/C=C/C(=O)O[C@H]2[C@H](O[C@H]3[C@H](O)[C@@H](O)[C@H](O[C@@H]4CO[C@@H](O[C@@H]5[C@@H](O)[C@H](C)O[C@@H](O[C@H]6[C@H](O[C@H]7CC[C@]8(C)[C@H]9CC=C%10[C@@H]%11CC(C)(C)CC[C@]%11(C(=O)O[C@@H]%11O[C@H](CO[C@@H]%12O[C@H](CO)[C@@H](O[C@@H]%13O[C@@H](C)[C@H](O)[C@@H](O)[C@H]%13O)[C@H](O)[C@H]%12O)[C@@H](O)[C@H](O)[C@H]%11O)CC[C@@]%10(C)[C@]9(C)CC[C@H]8C7(C)C)OC[C@H](O)[C@@H]6O)[C@@H]5O)[C@H](O)[C@@H]4O)O[C@@H]3CO)O[C@H](CO)[C@@H](O)[C@@H]2O)cc1O` [CLEMATERNOSIDE C], the values for the IC50 in assay [1] and in assay [2] were 7.6 µM and 8.8 µM, respectively.

Regarding `COc1ccc(/C=C/C(=O)O[C@H]2[C@H](O[C@H]3[C@H](O)[C@@H](O)[C@H](O[C@@H]4CO[C@@H](O[C@@H]5[C@@H](O)[C@H](C)O[C@@H](O[C@H]6[C@H](O[C@H]7CC[C@@]8(C)[C@@H](CC[C@]9(C)[C@@H]8CC=C8[C@@H]%10CC(C)(C)CC[C@]%10(C(=O)O[C@@H]%10O[C@H](CO[C@@H]%11O[C@H](CO)[C@@H](O[C@@H]%12O[C@@H](C)[C@H](O)[C@@H](O)[C@H]%12O)[C@H](O)[C@H]%11O)[C@@H](O)[C@H](O)[C@H]%10O)CC[C@]89C)[C@]7(C)CO)OC[C@@H](O)[C@@H]6O)[C@@H]5O)[C@H](O)[C@@H]4O)O[C@@H]3CO)O[C@H](CO)[C@@H](O)[C@@H]2O[C@@H]2O[C@H](CO[C@@H]3O[C@@H](C)[C@H](O)[C@@H](O)[C@H]3O[C@@H]3O[C@H](CO)[C@@H](O)[C@H](O)[C@H]3O)[C@@H](O)[C@H](O)[C@H]2O)cc1O` [CLEMATOCHINENOSIDE A], the IC50 in assay [1] came to 7.8 µM; in assay [2], 6.7 µM.

On to `C[C@@H]1O[C@@H](O[C@H]2[C@H](O)[C@@H](O)[C@H](OC[C@H]3O[C@@H](OC(=O)[C@]45CCC(C)(C)C[C@H]4C4=CC[C@@H]6[C@@]7(C)CC[C@H](O)C(C)(C)[C@@H]7CC[C@@]6(C)[C@]4(C)CC5)[C@H](O)[C@@H](O)[C@@H]3O)O[C@@H]2CO)[C@H](O)[C@H](O)[C@H]1O` [CIRENSENOSIDE O], for which the IC50 in assay [1] and in assay [2] was more than 50 µM in each case.

As for `COc1ccc(/C=C/C(=O)OC[C@H]2O[C@@H](O[C@H]3[C@H](O)[C@@H](O)[C@H](O[C@@H]4CO[C@@H](O[C@@H]5[C@@H](O)[C@H](C)O[C@@H](O[C@H]6[C@H](O[C@H]7CC[C@@]8(C)[C@@H](CC[C@]9(C)[C@@H]8CC=C8[C@@H]%10CC(C)(C)CC[C@]%10(C(=O)O[C@@H]%10O[C@H](CO[C@@H]%11O[C@H](CO)[C@@H](O[C@@H]%12O[C@@H](C)[C@H](O)[C@@H](O)[C@H]%12O)[C@H](O)[C@H]%11O)[C@@H](O)[C@H](O)[C@H]%10O)CC[C@]89C)[C@]7(C)CO)OC[C@@H](O)[C@@H]6O)[C@@H]5O)[C@H](O)[C@@H]4O)O[C@@H]3CO)[C@H](O)[C@@H](O)[C@@H]2O)cc1O` [CLEMATOCHINENOSIDE E], the IC50 worked out at 8.9 µM in assay [1] and 7.9 µM in assay [2].

As to `C[C@@H]1O[C@@H](O[C@H]2[C@H](O[C@H]3CC[C@]4(C)[C@H]5CC=C6[C@@H]7CC(C)(C)CC[C@]7(C(=O)O[C@@H]7O[C@H](CO[C@@H]8O[C@H](CO)[C@@H](O[C@@H]9O[C@@H](C)[C@H](O)[C@@H](O)[C@H]9O)[C@H](O)[C@H]8O)[C@@H](O)[C@H](O)[C@H]7O)CC[C@@]6(C)[C@]5(C)CC[C@H]4C3(C)CO)OC[C@H](O)[C@@H]2O)[C@H](O)[C@H](O)[C@H]1O` (stereo partly specified) [KIZUTA SAPONIN K12], the IC50 in assay [1] and in assay [2] was more than 50 µM each time.
